Assay results published in patent US20050124634A1, “1,4-dihydropyridine compounds, pharmaceutical compositions, and methods for the treatment of cardiovascular disease” (MYOGEN, INC., priority 2003, published 2005).

Key:
α-MyHC protein levels = assay: α-MyHC cytoblot assay in neonatal rat ventricular myocytes (NRVM); format: cell-based; conditions: NRVM, 3 days
Procedure: FIG. 1 Concentration-dependent effect of Compound 1 on α-MyHC protein levels in the cytoblot assay. NRVM are cultured for 3 days in serum-free medium in the presence of differing amounts of Compound 1. At the end of the culture period, NRVM are fixed and analyzed for α-MyHC protein levels using the BA-G5 monoclonal antibody specific for α-MyHC. Results are collected as RLU using a Packard Fusion Plate reader, and normalized to the signal from samples cultured in the absence of compound (control, set to 100%).
Preparation and culture of neonatal rat ventricular myocytes (NRVM) was performed by removing hearts from 1-3 day old rat neonatal pups, along with the atria and lungs. The ventricles were cut into smaller pieces and digested 3 times with collagenase for 20-30 min at 37° C. The myocytes were then separated from other cell types using a Percoll gradient. The myocyte layer was collected, washed 2 times, and plated on tissue culture grade 10 cm Petri dishes for 1-2 hrs. The non-adherent cells (myocytes) were removed and plated in Costar clear view 96 well plates coated with 0.2% gelatin for at least 2 hrs. The gelatin solution was removed, and the myocytes were resuspended in DMEM high glucose media (Mediatech) containing 10% charcoal/dextran treated FBS (Hyclone) and 1% Penicillin-Streptomycin-Glutamine (PSG, Gibco). Ten thousand NRVM were plated per well in a 100 μl volume, and incubated overnight at 37° C. in 5% CO2 in air. The following day, the media was replaced with 100 μl of serum-free DMEM high glucose medium supplemented with PSG and 0.3% Nutridoma-SP (Roche).
Compounds were reconstituted in DMSO at 30 mM, and aliquots were stored at −20° C. A 1:1000 dilution was prepared in serum-free DMEM medium supplemented with PSG and 0.3% Nutridoma, and sonicated for 5 min at room temperature. After sonication, additional 3 fold dilutions were prepared in the same medium. Diluted compound was then added to the NRVM cultures in a volume of 100 μl. A 100 mM thyroid hormone stock solution (T3, Calbiochem) was prepared in 100 mM NaOH and added at a final concentration of 3 nM in DMEM medium supplemented with PSG and 0.3% Nutridoma-SP (Roche). NRVM were cultured for 3 days before detection of α-myosin heavy chain (α-MyHC) protein levels in the cytoblot assay.
For the α-MyHC cytoblot assay, NRVM cultures were analyzed for α-MyHC protein levels after 3 days of incubation. NRVM were washed 2 times with PBS, fixed with methanol for 30 min at 4° C., and washed an additional 2 times with PBS. Blocking solution consisting of PBS with 1% bovine serum albumin (BSA, Fisher Biotech) was added for 1 hr at room temperature before addition of a saturating amount of supernatant containing an α-MyHC specific antibody for 60 min at room temperature (BA-G5 hybridoma, ATTC). Two washes were performed with PBS/1% BSA, and a 1:500 dilution of HRP-goat anti-mouse IgG (Southern Biotech) diluted in PBS/1% BSA was added for 60 min at room temperature. Excess antibody was removed with 3 PBS washes, and a chemiluminescent substrate was added (Pierce SuperSignal West Pico Chemiluminscent Substrate) for 5 min before quantitation on a Packard Fusion Plate Reader.
As shown above in Table 1, Compound 1 increased α-MyHC protein levels as determined by an α-MyHC cytoblot assay. Compound 1 was added to NRVM at concentration ranging from 3 nM to 30 μM. After 3 days of incubation with NRVM, α-MyHC protein levels were detected in the cytoblot assay and quantitated (FIG. 1). […] An increase in α-MyHC protein levels was first detected beginning at 30 nM, with a maximal response observed at 3 μM. In six independent experiments, the concentration of Compound 1 that gave a half-maximal response was on average 60 nM.

α-MyHC protein = α-MyHC protein levels in NRVM by Western blotting; format: cell-based, rat; conditions: NRVM stimulated 3 days; Compound 1 10 nM to 10 μM
Procedure: FIG. 2 Effect of Compound 1 on α-MyHC protein levels as detected by Western blotting. NRVM are stimulated with Compound 1 at different concentrations for 3 days. Protein extracts are prepared, proteins are separated by SDS-PAGE electrophoresis, transferred to PVDF membrane, and detected with an anti-α-MyHC monoclonal antibody.
As an independent measure of changes in α-MyHC protein levels, NRVM stimulated with Compound 1 were analyzed for α-MyHC protein levels by Western blotting. Protein extracts prepared from NRVM stimulated with a range of concentrations of Compound 1 from 10 nM to 10 μM were separated by SDS-PAGE and transferred to PVDF membrane. Levels of α-MyHC protein were detected by Western blotting using the same anti-α-MyHC monoclonal antibody used in the cytoblot assay. […] This experiment verified that the changes in α-MyHC protein detected in the cytoblot assay were also evident by Western blotting.

[1] = system: secretion of atrial natriuretic factor; assay: Anti-hypertrophic activity in NRVM, ANF ELISA (ANF secretion); format: cell-based, rat; conditions: Rattus norvegicus, read-out: IC50 of the ANF ELISA (antihypertrophic activity)
Procedure: Anti-hypertrophic Activity of Racemic Compound 1 and Purified Enantiomers of Compound 1. Neonatal rat ventricular myocytes (NRVM) were isolated from 1 to 3 day-old Sprague-Dawley rats using enzymatic digestion and myocyte enrichment techniques. NRVM were cultured in serum-containing media for 18 hours. For the continuation of culture, serum-free media was used. Hypertrophy of NRVM was induced using pharmacological stimuli, including phenylephrine, endothelin-1, and […]. Hypertrophic responses were determined using methods including the following: measurement of total cellular protein; secretion of atrial natriuretic factor; determination of cell volume; determination of the expression of so-called fetal genes such as atrial natriuretic factor, beta-myosin heavy chain and alpha-skeletal actin. ANF secretion was the most sensitive assay for measuring hypertrophy, and the IC50 of the ANF ELISA was the measurement used to determine antihypertrophic activity.

With `CC(=O)C1=C(C)NC(SCC(=O)c2cccc([N+](=O)[O-])c2)=C(C#N)C1c1ccccc1Cl` (racemic) [Compound 1] the “% increase of a-MyHC over baseline at 10 mM Cpd” value (α-MyHC protein levels; 10 mM Cpd) was 206%, the “concentration at which an increase in α-MyHC protein levels was first detected” value (α-MyHC protein levels; tested 3 nM to 30 μM) was 30 nM and the “concentration at which maximal response was observed” value (α-MyHC protein levels; tested 3 nM to 30 μM) was 3 µM. The EC50 (α-MyHC protein levels; Rattus norvegicus, Ventricular myocyte, 72 h, average of six independent experiments, read-out: concentration that gave a half-maximal response (α-MyHC protein levels)) was 60 nM, the “α-MyHC protein levels by Western blotting” value (α-MyHC protein) was “increasing amounts of α-MyHC protein were observed with increasing amounts of Compound 1” and the IC50 [1] was 427 nM.
